Laboratory results: patent publication US8697095B1, “Inhibition of replication of oncogenic herpesviruses” (priority 2004, dated 2014)
pIC50: −log10 of the molar value. “And” between values parts separate entries of the source, which are not always exact repeats. Equal values may be shown once. “Also recorded” adds a separate entry of the source.

What was measured:
[1] = cited from earlier work
KSHV, MHV 68 = details: FIG. 4 comparison; cited from earlier work
[2] = system: CMV immediate early promoter; experiment: Dual luciferase promoter assay, control CMV promoter in NIH3T12 cells; type: cell-based; details: 5 μg/ml, 48 hours
Text: (§1) FIG. 3 is a table showing the relative luciferase activity of extracts from control and THC treated cells. […] cells co-transfected with MHV 68 ORF 50 plus CMV control (top rows). BCBL-1 cells were co-transfected with the KSHV ORF 50 plus CMV control (bottom rows). Data represents averages from three independent co-transfection experiments.
(§2) A DNA fragment corresponding to the promoter region upstream of the mapped mRNAs was cloned into the basic firefly luciferase vector (Promega, Inc, Madison Wis.) to evaluate the effect of THC on the KSHV ORF 50 promoter. To assay the effect of THC on the MHV 68 ORF 50 gene, a DNA fragment containing the 0.4 kb full length ORF 50 promoter (nucleotides 66242-66652) cloned upstream of the firefly luciferase was utilized. About 5 μg KSHV ORF 50 firefly plasmid DNA was transfected into BCBL-1 cells. About 5 μg MHV 68 ORF 50 firefly plasmid DNA was transfected Into NIH312 cells. Control renilla luciferase expression vector (under the control of the CMV immediate early promoter) was included and co-transfected along with the ORF 50 reporter constructs. […] Luciferase activities were determined using a dual luminometer.
(§3) To evaluate the effect of THC on the MHV 68 and KSHV ORF 50 promoters, luciferase reporter assays were performed. […] Luciferase activities were determined using a dual luminometer. […]

HSV-1 [3] = experiment: HSV-1 plaque formation and virus yield in NIH3T12 cells; type: cell-based
HSV-1 [4] = experiment: HSV-1 replication in OMK cells; type: cell-based
Procedure: Control cultures were treated with […]. IC50 was determined by measuring virus titers in THC treated and control samples after one cycle of freeze-thawing of the cultures. Additional controls were uninfected cells grown in the presence of THC or DMSO. THC or DMSO were present throughout the experiment.
The inventors next examined whether or not the THC inhibitory effect can be observed against other herpesviruses and tested whether drug treatment suppresses the replication of the alpha herpesvirus, HSV-1. […] . […] HSV-1 replication in OMK was also unaffected by THC in an analogous experiment (not shown).

KSHV [5] = experiment: Gardella gel antiviral assay, KSHV DNA replication in BCBL-1 cells
[6] = system: Owl monkey kidney (OMK) cells; experiment: Cytotoxicity in owl monkey kidney (OMK) cells; type: cell-based; details: analogous experiment
Text: (§4) Because the observed effects might be due to a non-specific toxic effect of THC, the inventors tested whether THC alters cell division or morphology in NIH3T12 and owl monkey kidney (OMK) cells. […].

HVS = experiment: Cytopathic effect and virus yield reduction, HVS in owl monkey kidney cells; type: cell-based, herpesvirus saimiri (HVS)
EBV = experiment: Gardella gel antiviral assay, TPA-induced EBV replication in P3HR1 cells; type: cell-based, Epstein-Barr virus (EBV); details: P3HR1 cells with TPA
MHV 68 = experiment: Cytopathic effect and virus yield reduction, MHV 68 in NIH3T12 cells; type: cell-based, murine gamma herpesvirus 68 (MHV-68)
KSHV ORF 50 promoter = experiment: Dual luciferase promoter assay, KSHV ORF 50 promoter in BCBL-1 cells; type: cell-based; details: 5 μg/ml, 48 hours
Text: as §1, §2, §3

[7] = system: CMV immediate early promoter; experiment: Dual luciferase promoter assay, control CMV promoter in BCBL-1 cells; type: cell-based; details: 5 μg/ml
Text: as §1, §2, §3

BCBL-1 cells = experiment: Cell division inhibition (cell counts) in BCBL-1 cells; type: cell-based; details: BCBL1, 48 h, BCBL-1, two days, read-out: 50% cell division inhibitory concentration
Procedure: (§5) The effect of higher THC concentrations on cell division was also determined. Exponentially growing BCBL-1 or NIH12 cells were cultured for two days in the presence of various concentrations of THC or DMSO and cell counts were determined. The 50% cell division inhibitory concentration of THC for BCBL-1 cells was around 33 μM. NIH3T12 cells were less sensitive and the 50% inhibitory concentration was around 99 μM (not shown).

NIH3T12 cells [8] = experiment: Cell division inhibition (cell counts) in NIH3T12 cells; type: cell-based, Murine; details: Mus musculus, 48 h, NIH3T12, two days, read-out: 50% cell division inhibitory concentration
Procedure: as §5

NIH3T12 cells [9] = experiment: Cytotoxicity (monolayer growth and morphology) in NIH3T12 cells; type: cell-based, Murine; details: 0.6-10 μg/ml, 2 days
Text: as §4

KSHV [10] = system: KSHV
Procedure: BCBL-1 cells were incubated with or without THC and in the presence of these compounds.

Nc1ccn(C[C@@H](CO)OCP(=O)(O)O)c(=O)n1 [Cidofovir]
Side effects in humans [1]: toxic to the kidney | Relative potency in in vitro antiviral experiments (KSHV, MHV 68): most potent

CCCCCc1cc(O)c2c(c1)OC(C)(C)[C@@H]1CCC(C)=C[C@@H]21 [THC, Δ-9 Tetrahydrocannabinol]
Reduction of control CMV promoter activity [2]: 35% | HSV-1 plaque development (HSV-1 [3]; 0.6-10 μg/ml, 3 days, NIH3T12): indistinguishable from those in control cultures | Effect on HSV-1 virus yield (HSV-1 [3]; NIH3T12, multiplicity of 2, 24 hours): no significant inhibitory effect | HSV-1 replication (HSV-1 [4]): unaffected | Potency and selectivity against KSHV compared with known antiviral drugs (KSHV [5]; FIG. 4 comparison): potent and selective antiviral agent | IC50 (KSHV [5]; Human gammaherpesvirus 8, BCBL1, 72 h, read-out: 50% inhibitory concentration (IC50), KSHV linear DNA): 1 µg/mL and ~3.3 µM | Toxicity [6]: no toxicity | HVS virus yield reduction / replication (HVS): strongly inhibited | Effect on EBV linear DNA synthesis (EBV; autoradiogram): inhibited EBV linear DNA synthesis | IC50 (EBV; human gammaherpesvirus 4, P3HR-1, read-out: 50% inhibitory concentration (IC50), EBV linear DNA synthesis): ~0.9 µg/mL and ~3.1 µM | Cytopathic effect of MHV 68, appearance of infected cells (MHV 68; 0.6 μg/ml, 48 hours, NIH3T12): intermediate between uninfected cells and the full cytopathic effect | Cytopathic effect of MHV 68, appearance of infected cells (MHV 68; 1.25 μg/ml or higher, 48 hours, NIH3T12): indistinguishable from uninfected control cells | Inhibition of virus yield (MHV 68; 10 μg/ml, 48 hours, NIH3T12): over 300 fold | Potency and selectivity against MHV 68 compared with acyclovir, ganciclovir and foscarnet (MHV 68; FIG. 4 comparison): even more potent and selective | IC50 (MHV 68; Gammaherpesvirinae sp., in Mus musculus, 48 h, read-out: 50% inhibitory concentration (IC50), MHV 68 virus yield): ~0.6 µg/mL and ~1.9 µM | Effect on MHV 68 virus yield / replication (MHV 68; NIH3T12 cells): inhibits MHV 68 virus yield; also recorded: highly significantly inhibited; also recorded: strongly inhibited | Inhibition of KSHV ORF 50-driven luciferase activity (KSHV ORF 50 promoter): ~4 fold | Effect on co-transfected CMV promoter [7]: slightly stimulated | pIC50 (BCBL-1 cells): ~4.48 | pIC50 (NIH3T12 cells [8]): ~4.00 | Cell growth and morphology (NIH3T12 cells [9]): no altered morphology

SR144528
Effect on spontaneous KSHV reactivation (KSHV [10]; BCBL-1, without THC): no effect | Reversal of inhibition of linear DNA synthesis by THC (KSHV [10]; both antagonists, 1.25 μg/ml THC): reversed | Reversal of THC inhibition of KSHV DNA synthesis (KSHV [10]; single receptor antagonist): not reversed
